Measurements published in article PMC1976805, “Preclinical pharmacokinetics of benznidazole” (British Journal of Cancer, 1984).
Where “and” joins values, the source holds several entries; their conditions need not be identical. Equal values may be shown once. Read-outs that look alike come from different tables or passages of the source.

Key:
[1] = Whole plasma pharmacokinetics in dogs (HPLC); type: in vivo, dog
Source text: (§1) Br. J. Cancer (1984), 50, 291-303 Preclinical pharmacokinetics of benznidazole P. Workman', R.A.S. White2, M.I. Walton', L.N. Owen2* & P.R. Twentyman' 1MRC Clinical Oncology and Radiotherapeutics Unit, MRC Centre, Hills Road, Cambridge CB2 2QH, and 2Department of Clinical Veterinary Medicine, University of Cambridge, Madingley Road, Cambridge CB3 OES, UK. […] We have investigated the detailed pharmacokinetics of benznidazole in mice, dogs and sheep to provide a data base for the estimation of doses required for chemosensitization in man. Pharmacokinetic behaviour was linear except at high doses in mice. Absorption was fairly rapid and bioavailability was complete following both i.p. administration in mice and oral administration in dogs. Elimination t4 values were longer than for MISO, being 90 min in mice, 4-5 h in sheep and 9-11 h in dogs. At doses giving linear kinetics, peak whole plasma concentrations per administered mgkg-1 were 0.75 jigml-1 for the i.p. route in mice and 1.8jugmlP' for the oral route in dogs. Though between 39 and 59% of plasma benznidazole was bound to protein, tissue penetration was generally good. Tissue/whole plasma ratios ranged from 59-99% for transplantable mouse tumours and from 14-70% for spontaneous dog neoplasms. Nervous tissue penetration was similar to that in tumours: brain/whole plasma ratios averaged between 61 and 76% in mice and 42% in dogs, while peripheral nerve/whole plasma ratios in dogs averaged 74%. Mean liver/whole plasma ratios were 42% and 71% in BALB/c and C3H/He mouse strains respectively. Only -5% of the administered dose was excreted unchanged in the urine, indicating the likelihood of extensive metabolism. […] Enhancement of CCNU response is likely to require circulating benznidazole concentrations of 10-30 pgml-1 and we predict that these will be obtained with oral doses of 6-20 mgkg- 1 in man. […] This enhancement, or chemosensitization, is usually greater than that seen in dose-limiting normal tissues, resulting in an improved therapeutic index. Because of the relatively high doses of MISO usually required for chemosensitization in mice (see above refs), and also because of its neurotoxicity in man (Dische et al., 1977), we have been interested in finding an improved chemosensitizer. […] The lipophilic ana- logue benznidazole (N-benzyl-(2-nitroimidazolyl) acetamide, Ro 07-1051; Radanil; Roche), the structure of which is shown in Figure 1, was selected for detailed study because of its ability to *Present address: Animal Health Trust, Small Animals Centre, Lanwades Park, Kennett, Newmarket, Suffolk CB8 7PN, UK. Correspondence: P. Workman. […] These findings have been confirmed independently by Siemann et al. (1983). Although benznidazole is used quite widely in South America to treat patients with the trypanosomal infection Chagas' disease or with mucotaneous Leishmaniasis (Barclay et al., 1978; Cerisola et al., 1978; Coura et al., 1978; Fava et al., 1978), apart from our preliminary studies (White et al., 1982) the only published data on its pharmaco- kinetics are for human plasma concentrations measured by polarography (Raaflub & Ziegler, 1979; Raaflub, 1980). Here we describe the pharmacokinetics of benznidazole in the mouse, sheep and dog, as determined by high-performance liquid chromatography (HPLC). […] The Macmillan Press Ltd., 1984 292 P. WORKMAN et al. particularly on plasma and tumour concentrations, have been used as a basis for the estimation of the benznidazole doses required in a Phase I trial of benznidazole plus CCNU, at present ongoing in our Unit. Materials and methods Animals and tumours Adult inbred male BALB/c mice were obtained from OLAC (Southern) Ltd. (Bicester, UK) and adult inbred C3H/He mice of both sexes from OLAC and our own breeding colony. Mice were housed in plastic cages on sawdust bedding made from soft white woods, and allowed laboratory chow and water ad lib. They were used at 20-35 g body wt.

plasma proteins = test: Binding to plasma proteins in vitro, mouse plasma (ultrafiltrate); type: in vitro ADME
Source text: Br. J. Cancer (1984), 50, 291-303 Preclinical pharmacokinetics of benznidazole P. Workman', R.A.S. White2, M.I. Walton', L.N. Owen2* & P.R. Twentyman' 1MRC Clinical Oncology and Radiotherapeutics Unit, MRC Centre, Hills Road, Cambridge CB2 2QH, and 2Department of Clinical Veterinary Medicine, University of Cambridge, Madingley Road, Cambridge CB3 OES, UK. […] We have investigated the detailed pharmacokinetics of benznidazole in mice, dogs and sheep to provide a data base for the estimation of doses required for chemosensitization in man. Pharmacokinetic behaviour was linear except at high doses in mice. Absorption was fairly rapid and bioavailability was complete following both i.p. administration in mice and oral administration in dogs. Elimination t4 values were longer than for MISO, being 90 min in mice, 4-5 h in sheep and 9-11 h in dogs. At doses giving linear kinetics, peak whole plasma concentrations per administered mgkg-1 were 0.75 jigml-1 for the i.p. route in mice and 1.8jugmlP' for the oral route in dogs. Though between 39 and 59% of plasma benznidazole was bound to protein, tissue penetration was generally good. Tissue/whole plasma ratios ranged from 59-99% for transplantable mouse tumours and from 14-70% for spontaneous dog neoplasms. Nervous tissue penetration was similar to that in tumours: brain/whole plasma ratios averaged between 61 and 76% in mice and 42% in dogs, while peripheral nerve/whole plasma ratios in dogs averaged 74%. […] Although benznidazole is used quite widely in South America to treat patients with the trypanosomal infection Chagas' disease or with mucotaneous Leishmaniasis (Barclay et al., 1978; Cerisola et al., 1978; Coura et al., 1978; Fava et al., 1978), apart from our preliminary studies (White et al., 1982) the only published data on its pharmaco- kinetics are for human plasma concentrations measured by polarography (Raaflub & Ziegler, 1979; Raaflub, 1980). Here we describe the pharmacokinetics of benznidazole in the mouse, sheep and dog, as determined by high-performance liquid chromatography (HPLC). […]

[2] = Penetration into mouse liver; type: in vivo; details: for liver/whole plasma ratio, overall mean / liver concentration / whole plasma concentration / Kp at 0.5 h / Kp at 3 h / Kp at 6 h / Kp: 78 mg kg-1 i.p.; for liver/whole plasma ratio, overall mean / Kp: 0.5-6 h; for Kp at 0.5 h / Kp at 3 h / Kp at 6 h / Kp: mouse, ip; for Kp at 0.5 h / Kp at 3 h / Kp at 6 h: liver / whole plasma, read-out: liver/whole plasma ratio; for Kp: liver, read-out: liver/whole plasma ratio, overall mean
Source text: as §1

- peak time ([1]; dog D, 25 mg kg-1 oral): 3 h
- peak whole plasma concentration ([1]; dog D, collie crossbred 20 kg, 5 mg kg-1 i.v.): 12.4 µg/mL
- peak whole plasma concentration ([1]; dog D, collie crossbred 20 kg, 12.5 mg kg-1 oral (slow, prolonged absorption)): 13.1 µg/mL
- peak whole plasma concentration ([1]; dog D, collie crossbred 20 kg, 25 mg kg-1 oral): 46.5 µg/mL
- peak whole plasma concentration ([1]; dog E, beagle 9 kg, 50 mg kg-1 oral): 59.8 µg/mL
- peak time ([1]; dog F, 50 mg kg-1 oral): 3 h
- peak whole plasma concentration ([1]; dog F, beagle 10 kg, 50 mg kg-1 oral): 54.8 µg/mL
- Tmax ([1]; dog, plasma, po, dogs, discussion summary, read-out: time of peak concentrations after oral dosing): 3 to 5 h
- overall oral bioavailability (dose-normalised AUC0-∞ oral vs i.v.) ([1]; dogs C and D): about 130%
- peak concentrations readily achieved ([1]; dogs, oral doses of 25-50 mg kg-1): 50 µg/mL
- average peak whole plasma concentration ([1]; large crossbred dogs, 12.5 mg kg-1 oral): 20 µg/mL
- average peak whole plasma concentration ([1]; large crossbred dogs, 25 mg kg-1 oral): 47 µg/mL
- mean peak whole plasma concentration per administered mg kg-1 ([1]; large crossbred dogs, oral route (s.e., n=6)): 1.8 µg ml-1 and 1.77 + 0.17 µg ml-1
- extent of binding to plasma proteins in vitro (plasma proteins; BALB/c mice): 38%
- extent of binding to plasma proteins in vitro (plasma proteins; C3H/He mice): 39%
- binding to plasma proteins (plasma proteins; mouse, discussion summary): 39%
- liver/whole plasma ratio, overall mean ([2]; BALB/c): 41.7%
- liver concentration ([2]; BALB/c, 0.5 h): 20.8 µg/g
- whole plasma concentration ([2]; BALB/c, 0.5 h): 45.3 µg/mL
- liver concentration ([2]; BALB/c, 3.0 h): 10.3 µg/g
- whole plasma concentration ([2]; BALB/c, 3.0 h): 29.8 µg/mL
- liver concentration ([2]; BALB/c, 6.0 h): 8.2 µg/g
- whole plasma concentration ([2]; BALB/c, 6.0 h): 12.2 µg/mL
- liver/whole plasma ratio, overall mean ([2]; C3H/He, n=29): 70.6% and 71 + 8%
- liver concentration ([2]; C3H/He, 0.5 h): 25.2 µg/g
- whole plasma concentration ([2]; C3H/He, 0.5 h): 33.9 µg/mL
- liver concentration ([2]; C3H/He, 3.0 h): 17.3 µg/g
- whole plasma concentration ([2]; C3H/He, 3.0 h): 34.1 µg/mL
- liver concentration ([2]; C3H/He, 6.0 h): 17.8 µg/g
- whole plasma concentration ([2]; C3H/He, 6.0 h): 21.1 µg/mL
- Kp at 0.5 h ([2]; both sexes, C3H/He, 78 mg kg-1, C3H/He, 0.5 h): 0.758
- Kp at 3 h ([2]; both sexes, C3H/He, 78 mg kg-1, C3H/He, 3.0 h): 0.533
- Kp at 6 h ([2]; both sexes, C3H/He, 78 mg kg-1, C3H/He, 6.0 h): 0.843
- Kp ([2]; both sexes, C3H/He, 78 mg kg-1, C3H/He, n=29): 0.71
- Kp at 0.5 h ([2]; male, BALB/c, 78 mg kg-1, BALB/c, 0.5 h): 0.466
- Kp at 3 h ([2]; male, BALB/c, 78 mg kg-1, BALB/c, 3.0 h): 0.348
- Kp at 6 h ([2]; male, BALB/c, 78 mg kg-1, BALB/c, 6.0 h): 0.439
- Kp ([2]; male, BALB/c, 78 mg kg-1, BALB/c): 0.42
- peak liver concentration that would be produced ([2]; mice, 13 mg kg-1 i.p.): ~7 µg/g
- liver concentration ([2]; mice, discussion summary): 21 µg/g
SMILES: O=C(Cn1ccnc1[N+](=O)[O-])NCc1ccccc1 [benznidazole, N-benzyl-(2-nitroimidazolyl) acetamide]
